Measured values: US10563205B2, “Nucleic acid aptamer AS1411 modified DNA tetrahedron and preparation method thereof” (Sichuan University, priority 2016, dated 2020)

System: tumor cells A549
Experiment: MTS proliferation test of tumor cells A549
Assay type: cell-based
Conditions: A549, 0-3.2 μM, 1.5 h exposure, then 48 h culture
Procedure: Plating the cultured tumor cells A549 in 96-well cell culture plates (100 μL, 5×10^4 cell/well), adding pure Adriamycin or samples with predetermined concentrations (0, 0.1 μM, 0.2 μM, 0.4 μM, 0.8 μM, 1.6 μM, 3.2 μM) into the wells respectively, culturing in a cell incubator for 1.5 h, centrifuging, removing the cell culture medium in the supernatant, adding fresh culture medium to continue culturing for 48 h, then testing the proliferation rate of the cells using a MTS reagent.

COc1cccc2c1C(=O)c1c(O)c3c(c(O)c1C2=O)C[C@@](O)(C(=O)CO)C[C@@H]3O[C@H]1C[C@H](N)[C@H](O)[C@H](C)O1 [Adriamycin]
inhibitory effect against tumor cells as the concentration increases (proliferation rate, MTS): increases gradually
